In ChEMBL document CHEMBL1201862, “PubChem BioAssay data set” (2004):
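Values below derive from 48-hour exposures of cells grown in 96-well plates, with endpoints linearly interpolated between the two concentrations bracketing the appropriate inhibition level. The concentration for 50% growth inhibition is given as GI50.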 Active and inactive are the calls of the source. Cut-off read from the data, not from the text of the source: active = GI50 up to about 1.1 µM and inactive = higher.

Columns and labels:
Test in all cases: NCI-60 cell line screen, 48 h
[1] = system: HOP-92
[2] = system: NCI-H522
[3] = system: A549
[4] = system: MCF7
[5] = system: NCI-H226
[6] = system: SNB-75
[7] = system: OVCAR-4
[8] = system: SW-620
[9] = system: RXF 393
[10] = system: EKVX
[11] = system: SF-539
[12] = system: HL-60
[13] = system: RPMI-8226
[14] = system: HCT-116
[15] = system: SN12C
[16] = system: DU-145
[17] = system: HT-29
[18] = system: K562
[19] = system: LOX IMVI
[20] = system: NCI-H460

Row | SMILES | GI50 [1] | GI50 [2] | GI50 [3] | GI50 [4] | GI50 [5] | GI50 [6] | GI50 [7] | GI50 [8] | GI50 [9] | GI50 [10] | GI50 [11] | GI50 [12] | GI50 [13] | GI50 [14] | GI50 [15] | GI50 [16] | GI50 [17] | GI50 [18] | GI50 [19] | GI50 [20]
1 | Cc1c2cc[n+](C)c(C)c2cc2c1[nH]c1ccccc12 | 7.46 µM (inactive) | 2.86 µM (inactive) | 1.59 µM (inactive) | 5.74 µM (inactive) | 1.69 µM (inactive) | 1.19 µM (inactive) | 5.43 µM (inactive) | 8.09 µM (inactive) | 38.7 µM (inactive) | 5.46 µM (inactive) | 2.96 µM (inactive) | 16.9 µM (inactive) | 6.07 µM (inactive) | 16.1 µM (inactive) | 0.627 µM (active) | 10.7 µM (inactive) | 10.6 µM (inactive) | 4.94 µM (inactive) | 21.7 µM (inactive) | 3.37 µM (inactive)
2 | c1sc(NC2=NCCO2)c2c1CCCC2 | > 100 µM (inactive) | > 100 µM (inactive) | > 100 µM (inactive) | > 100 µM (inactive) | > 100 µM (inactive) | > 100 µM (inactive) | > 100 µM (inactive) | > 100 µM (inactive) | > 100 µM (inactive) | > 100 µM (inactive) | > 100 µM (inactive) | > 100 µM (inactive) | > 100 µM (inactive) | > 100 µM (inactive) | – | > 100 µM (inactive) | > 100 µM (inactive) | > 100 µM (inactive) | > 100 µM (inactive) | > 100 µM (inactive)
3 | Cc1cc(-c2c(F)cc3c4nn([C@H]5CC[C@@H](N(C)C)CC5)c(=O)c-4cn(C4CC4)c3c2F)cc(C)n1 | 0.0453 µM (active) | 0.169 µM (active) | 0.161 µM (active) | 0.0728 µM (active) | 0.101 µM (active) | 0.0512 µM (active) | 3.36 µM (inactive) | 0.195 µM (active) | 0.43 µM (active) | 2.06 µM (inactive) | 0.177 µM (active) | 0.0383 µM (active) | 1.11 µM (active) | 0.16 µM (active) | 0.168 µM (active) | 0.416 µM (active) | 0.245 µM (active) | 0.0297 µM (active) | 0.0998 µM (active) | < 0.0224 µM (active)
4 | C=CCc1cc(-c2cc(CC=C)c(O)c(CN(CC)CC)c2)cc(CN(CC)CC)c1O | 18 µM (inactive) | 20.6 µM (inactive) | 71.6 µM (inactive) | 58.5 µM (inactive) | 48.9 µM (inactive) | > 100 µM (inactive) | > 100 µM (inactive) | 25.5 µM (inactive) | 21.4 µM (inactive) | > 80.9 µM (inactive) | 21.4 µM (inactive) | 35.4 µM (inactive) | 27.5 µM (inactive) | 22 µM (inactive) | 85.1 µM (inactive) | > 100 µM (inactive) | 15.7 µM (inactive) | 26.1 µM (inactive) | 16 µM (inactive) | 21.3 µM (inactive)
5 | CCOC(=O)C1=C(C)C2C=C(c3cccs3)CC(c3ccc(Cl)cc3)=C2OC1=O (stereo unspecified) | > 100 µM (inactive) | 19.2 µM (inactive) | > 100 µM (inactive) | 14.1 µM (inactive) | 21 µM (inactive) | 50.8 µM (inactive) | 19.7 µM (inactive) | 65 µM (inactive) | 84.5 µM (inactive) | 31 µM (inactive) | – | 4.69 µM (inactive) | 7.59 µM (inactive) | 7.43 µM (inactive) | 44.3 µM (inactive) | 29.9 µM (inactive) | 30 µM (inactive) | 5.05 µM (inactive) | 16.9 µM (inactive) | 64.4 µM (inactive)
6 | CC[C@@H]1CSC(/C=C/C2OC3OC(C)(C)OC3C3OC(C)(C)OC23)=N1 (stereo partly specified) | 3.7 µM (inactive) | 3.18 µM (inactive) | 22.5 µM (inactive) | 4.58 µM (inactive) | 16.4 µM (inactive) | 15 µM (inactive) | 4.39 µM (inactive) | 3.22 µM (inactive) | 3.4 µM (inactive) | 11.8 µM (inactive) | 4.84 µM (inactive) | 2.34 µM (inactive) | 5.78 µM (inactive) | 3.5 µM (inactive) | 11.1 µM (inactive) | 2.27 µM (inactive) | 3.94 µM (inactive) | 3.91 µM (inactive) | 6.53 µM (inactive) | 21.5 µM (inactive)
7 | CCOC(=O)Nc1ccc(C)c(NC(=O)OCC)c1 | > 100 µM (inactive) | > 100 µM (inactive) | > 100 µM (inactive) | > 100 µM (inactive) | > 100 µM (inactive) | > 100 µM (inactive) | – | > 100 µM (inactive) | > 100 µM (inactive) | 6.58 µM (inactive) | > 100 µM (inactive) | > 100 µM (inactive) | > 100 µM (inactive) | > 100 µM (inactive) | > 100 µM (inactive) | > 100 µM (inactive) | > 100 µM (inactive) | > 100 µM (inactive) | > 100 µM (inactive) | > 100 µM (inactive)
8 | COC(=O)C1=C(C(=O)OC)SC2(S1)C(C(=O)OC)=C(C(=O)OC)Sc1c2ssc1=O | 0.826 µM (active) | 0.177 µM (active) | 9.66 µM (inactive) | 1.26 µM (inactive) | 1.48 µM (inactive) | 4.01 µM (inactive) | 1.22 µM (inactive) | 0.661 µM (active) | 1.08 µM (active) | 2.16 µM (inactive) | 1.15 µM (inactive) | 0.016 µM (active) | 0.982 µM (active) | 0.459 µM (active) | 1.19 µM (inactive) | 0.877 µM (active) | 0.585 µM (active) | 0.547 µM (active) | 0.208 µM (active) | 2.88 µM (inactive)
9 | COc1ccc(/N=N/C(=O)NC(Cc2ccccc2)C(=O)O)cc1 (stereo unspecified) | 28.2 µM (inactive) | > 100 µM (inactive) | > 100 µM (inactive) | > 100 µM (inactive) | > 100 µM (inactive) | > 100 µM (inactive) | > 100 µM (inactive) | > 100 µM (inactive) | > 100 µM (inactive) | > 100 µM (inactive) | > 100 µM (inactive) | > 100 µM (inactive) | > 100 µM (inactive) | > 100 µM (inactive) | > 100 µM (inactive) | > 100 µM (inactive) | > 100 µM (inactive) | > 100 µM (inactive) | > 100 µM (inactive) | > 100 µM (inactive)
10 | COc1c(C(=O)/C(=N/Nc2ccc(C(=O)O)cc2)C(C)=O)c(O)cc2occc12 | 43.4 µM (inactive) | 51.3 µM (inactive) | > 100 µM (inactive) | > 100 µM (inactive) | > 100 µM (inactive) | 50.7 µM (inactive) | – | > 100 µM (inactive) | 51.2 µM (inactive) | > 100 µM (inactive) | > 100 µM (inactive) | 42.8 µM (inactive) | > 100 µM (inactive) | > 100 µM (inactive) | > 100 µM (inactive) | > 100 µM (inactive) | > 100 µM (inactive) | > 100 µM (inactive) | > 100 µM (inactive) | 82 µM (inactive)
